US20090181931A1, “ANTIVIRAL ACTIVITY OF CIDOFOVIR AGAINST ONCOLYTIC VIRUSES” (priority 2008, published 2009)

System: Wild-type adenovirus (OBP-202)
Experiment: Real-time quantitative PCR, viral E1A copy number, wild-type adenovirus in H1299 cells
Type: cell-based
Conditions: for E1A copy number, % (relative to 0 μM) / E1A copy number/ng DNA: Wt-Ad MOI 10, H1299, 24 hours
Description: Cells were seeded in 6-well plate (2 mL/well, 2×10^5 cells/well), and incubated with 5% CO2 at 37° C.
Viruses were diluted at a MOI of 10. Medium in each well was removed, 500 μL of diluted virus solution was added to each well of the plate. Plates were incubated with 5% CO2 at 37° C. for 2 hours with gently shaking every 15 minutes. Medium was aspirated, washed with PBS twice, and replaced with fresh medium containing 2% FCS and serially diluted CDV. Cells were incubated with 5% CO2 at 37° C. for 24 hours after infection.
Cells were detached with Trypsin-EDTA, and collected by centrifuging. Total DNA was extracted using QIAamp™ DNA Mini Kit according to manufacture's instructions with some modifications: addition of 20 μL of RNaseA in each sample when adding ProK. DNA was eluted by 50˜100 μL of D. W.
Concentration of DNA was determined by measuring O.D.260. Each DNA samples was diluted by D. W. at a concentration of 5 ng/μL.
Master-mix for E1A primer was prepared using LightCycler™ Faststart DNAMaster SYBR Green™ according to Table 1. Standard DNA was prepared by serially 10 times dilution of pCRII-E1A plasmid (1×10^9, 1×10^8, 1×10^7, 1×10^6, 1×10^5, 1×10^4, and 1×10^3 copies/μL). 2 μL of Sample or Standard DNA was and 18 μL of Master mix were added into capillaries (total volume was 20 μL per capillary).
Q-PCR was performed according to the program of Table 2 (LightCycler quicksystem 350S). Results obtained here were analyzed using LightCycler softwere.

SMILES: Nc1ccn(C[C@@H](CO)OCP(=O)(O)O)c(=O)n1.O.O [CDV, 1-[(S)-3-hydroxy-2-(phosphonomethoxy)propyl]cytosine dihydrate]
- E1A copy number, % (relative to 0 μM) (CDV 0.16 μM): 117.49%
- E1A copy number/ng DNA (CDV 0.16 μM): 6.152E+07 copy number/ng DNA
- E1A copy number, % (relative to 0 μM) (CDV 0.8 μM): 95.65%
- E1A copy number/ng DNA (CDV 0.8 μM): 5.008E+07 copy number/ng DNA
- E1A copy number, % (relative to 0 μM) (CDV 4 μM): 74.69%
- E1A copy number/ng DNA (CDV 4 μM): 3.911E+07 copy number/ng DNA
- E1A copy number, % (relative to 0 μM) (CDV 20 μM): 32.83%
- E1A copy number/ng DNA (CDV 20 μM): 1.719E+07 copy number/ng DNA
- E1A copy number, % (relative to 0 μM) (CDV 100 μM): 4.79%
- E1A copy number/ng DNA (CDV 100 μM): 2.509E+06 copy number/ng DNA
- Viral E1A copy number (wild-type AdV, H1299 cells, dose-dependent manner): reduced
